Results from ChEMBL document CHEMBL1201862, “PubChem BioAssay data set” (2004).
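Results reflect a 48-hour exposure of cells in 96-well plates to compound at five concentrations. Abbreviation: GI50, concentration required for 50% inhibition of growth.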 Calls of active or inactive are those of the source. Cut-off read from the data, not from the text of the source: active = GI50 up to about 1.1 µM and inactive = higher.

Key:
Assay in all cases: inhibition of tumour cell growth, NCI panel, 48 h
786-0 = test system: 786-0
ACHN = test system: ACHN
DU-145 = test system: DU-145
HL-60 = test system: HL-60
HOP-62 = test system: HOP-62
KM12 = test system: KM12
M14 = test system: M14
MDA-N = test system: MDA-N
OVCAR-3 = test system: OVCAR-3
OVCAR-5 = test system: OVCAR-5
OVCAR-8 = test system: OVCAR-8
RPMI-8226 = test system: RPMI-8226
SK-MEL-28 = test system: SK-MEL-28
SK-MEL-2 = test system: SK-MEL-2
SK-MEL-5 = test system: SK-MEL-5
SR = test system: SR
TK-10 = test system: TK-10
U-251 = test system: U-251
UO-31 = test system: UO-31
NCI-H226 = test system: NCI-H226

Measured: GI50

Cc1cc(C)n(CN(CCCCO)Cn2nc(C)cc2C)n1
inactive: 786-0 14.8 µM | ACHN 17.5 µM | DU-145 24.8 µM | HL-60 23.3 µM | HOP-62 21.8 µM | KM12 23 µM | M14 18.5 µM | MDA-N 17.5 µM | OVCAR-3 27.9 µM | OVCAR-5 23.2 µM | OVCAR-8 19.2 µM | RPMI-8226 3.21 µM | SK-MEL-28 17.7 µM | SK-MEL-2 22.2 µM | SK-MEL-5 34.1 µM | SR 4.82 µM | TK-10 73.8 µM | U-251 22.4 µM | UO-31 27.7 µM

CCCCN/N=N/c1cn(C2OC(CO)C(O)C2O)c(=O)[nH]c1=O (stereo not given)
inactive: 786-0 > 100 µM | ACHN > 100 µM | DU-145 > 100 µM | HL-60 > 100 µM | HOP-62 > 100 µM | KM12 > 100 µM | M14 > 100 µM | MDA-N > 100 µM | NCI-H226 > 100 µM | OVCAR-3 > 100 µM | OVCAR-5 > 100 µM | OVCAR-8 > 100 µM | SK-MEL-28 > 100 µM | SK-MEL-2 > 100 µM | SK-MEL-5 > 100 µM | SR > 100 µM | TK-10 > 100 µM

C(=N\Nc1nnc(-c2nnc(N/N=C/c3ccccc3)o2)o1)/c1ccccc1
inactive: 786-0 > 10 µM | ACHN > 10 µM | DU-145 > 10 µM | HL-60 > 10 µM | HOP-62 > 10 µM | KM12 > 10 µM | M14 > 10 µM | MDA-N > 10 µM | NCI-H226 > 10 µM | OVCAR-3 > 10 µM | OVCAR-5 > 10 µM | OVCAR-8 > 10 µM | RPMI-8226 > 10 µM | SK-MEL-28 > 10 µM | SK-MEL-5 > 10 µM | SR > 10 µM | TK-10 > 10 µM | U-251 > 10 µM | UO-31 > 10 µM

COc1ccc2nc3n(c2c1)C(c1c(F)cccc1Cl)SC3 (stereo not given)
inactive: 786-0 > 100 µM | ACHN > 100 µM | DU-145 > 100 µM | HL-60 9.31 µM | HOP-62 > 100 µM | KM12 > 100 µM | M14 > 100 µM | MDA-N > 100 µM | OVCAR-3 > 100 µM | OVCAR-5 > 100 µM | OVCAR-8 46.8 µM | RPMI-8226 > 100 µM | SK-MEL-28 > 100 µM | SK-MEL-2 > 100 µM | SK-MEL-5 > 100 µM | SR > 100 µM | TK-10 > 100 µM | U-251 > 100 µM | UO-31 > 100 µM

CC(=O)N/N=C1\NC(=O)C[C@H]2[C@@H]3CC=C4C[C@@H](OC(C)=O)CC[C@]4(C)[C@H]3CC[C@]12C
inactive: 786-0 16 µM | ACHN 21.5 µM | DU-145 74 µM | HL-60 > 100 µM | HOP-62 13.6 µM | KM12 38.9 µM | M14 30.8 µM | MDA-N 7.16 µM | NCI-H226 23.8 µM | OVCAR-3 > 100 µM | OVCAR-5 > 100 µM | OVCAR-8 25.1 µM | RPMI-8226 24.3 µM | SK-MEL-28 13.4 µM | SK-MEL-2 47.5 µM | SK-MEL-5 50.8 µM | TK-10 17.1 µM | U-251 12.8 µM | UO-31 40.6 µM

CC1=C(/C=C/Cl)CC(Cl)C(C)(Cl)C1 (stereo not given)
inactive: 786-0 > 100 µM | ACHN > 100 µM | DU-145 > 100 µM | HL-60 20.4 µM | KM12 > 100 µM | M14 > 100 µM | MDA-N > 100 µM | NCI-H226 > 100 µM | OVCAR-5 > 100 µM | OVCAR-8 > 100 µM | SK-MEL-28 > 100 µM | SK-MEL-2 > 100 µM | SK-MEL-5 > 100 µM | SR > 100 µM | TK-10 > 100 µM | U-251 > 100 µM | UO-31 > 100 µM

Oc1ccc([I+]c2ccccc2)cc1O
inactive: 786-0 65 µM | ACHN 36.8 µM | DU-145 57.8 µM | HL-60 16 µM | HOP-62 34.2 µM | KM12 24.8 µM | MDA-N 35.3 µM | NCI-H226 > 100 µM | OVCAR-3 28.1 µM | OVCAR-5 59.6 µM | OVCAR-8 53.3 µM | RPMI-8226 12 µM | SK-MEL-28 61.9 µM | SK-MEL-5 36 µM | SR 19.1 µM | TK-10 > 100 µM | U-251 17.4 µM | UO-31 2.51 µM

O=C(NNC(=O)c1csc(NC(=S)NC2CCCCC2)n1)c1ccccc1
inactive: 786-0 12.7 µM | ACHN 11.4 µM | DU-145 18.7 µM | HOP-62 14 µM | KM12 8.13 µM | M14 13.5 µM | MDA-N 13.9 µM | NCI-H226 7.24 µM | OVCAR-3 4.33 µM | OVCAR-5 11.9 µM | OVCAR-8 6.52 µM | RPMI-8226 10 µM | SK-MEL-2 22.4 µM | SK-MEL-5 6.71 µM | SR 2.26 µM | TK-10 22 µM | U-251 3.71 µM | UO-31 13.7 µM

COc1ccccc1Cn1nc(OC)c2cc([N+](=O)[O-])ccc21
inactive: 786-0 11.6 µM | ACHN 31 µM | DU-145 > 100 µM | HL-60 > 100 µM | HOP-62 4.48 µM | KM12 > 100 µM | M14 > 100 µM | MDA-N > 100 µM | NCI-H226 42.1 µM | OVCAR-3 > 100 µM | OVCAR-5 > 100 µM | OVCAR-8 31.1 µM | SK-MEL-28 > 91 µM | SK-MEL-2 19.7 µM | SK-MEL-5 > 53.7 µM | SR > 100 µM | TK-10 12.5 µM | U-251 12 µM | UO-31 > 35.1 µM

O=C(C=P(c1ccccc1)(c1ccccc1)c1ccccc1)c1ccc(-c2ccc(F)cc2F)cc1
inactive: 786-0 3.56 µM | ACHN 2.44 µM | DU-145 3.1 µM | HL-60 2.43 µM | HOP-62 3.79 µM | KM12 3.42 µM | M14 2.42 µM | MDA-N 2.78 µM | NCI-H226 2.43 µM | OVCAR-3 1.95 µM | OVCAR-5 2.96 µM | RPMI-8226 1.87 µM | SK-MEL-28 2.95 µM | SK-MEL-5 1.84 µM | SR 3.44 µM | TK-10 2.2 µM | U-251 3.41 µM | UO-31 1.77 µM

O=C(O)C(Cc1c[nH]cn1)N1C(=O)c2ccccc2C1=O (stereo not given)
inactive: 786-0 > 100 µM | ACHN > 100 µM | DU-145 > 100 µM | HOP-62 12.9 µM | KM12 > 100 µM | M14 > 100 µM | MDA-N > 100 µM | NCI-H226 > 100 µM | OVCAR-3 50.5 µM | OVCAR-5 > 100 µM | OVCAR-8 > 100 µM | RPMI-8226 > 100 µM | SK-MEL-28 > 100 µM | SK-MEL-2 6.19 µM | SK-MEL-5 > 100 µM | SR > 100 µM | TK-10 > 100 µM | U-251 > 100 µM | UO-31 > 100 µM

CSc1nc(NC2CC2)c2c(n1)Sc1nc3ccccc3n1N=C2
inactive: 786-0 6.08 µM | ACHN 11 µM | DU-145 23.5 µM | HOP-62 16.3 µM | KM12 56.2 µM | M14 39.5 µM | MDA-N 40.2 µM | NCI-H226 16.8 µM | OVCAR-3 17.3 µM | OVCAR-5 37.2 µM | OVCAR-8 10.1 µM | SK-MEL-28 > 100 µM | SK-MEL-2 30.3 µM | SK-MEL-5 17 µM | SR > 100 µM | TK-10 25.1 µM | U-251 20 µM | UO-31 16.5 µM

O=C(O)CN1CCN2CCCCCCCCN(CC1)CCN(CC(=O)O)CC2
inactive: 786-0 > 100 µM | ACHN > 100 µM | DU-145 > 100 µM | HL-60 5.08 µM | HOP-62 > 100 µM | KM12 75.2 µM | M14 > 100 µM | MDA-N > 100 µM | NCI-H226 > 100 µM | OVCAR-3 > 100 µM | OVCAR-5 > 100 µM | OVCAR-8 > 100 µM | RPMI-8226 > 100 µM | SK-MEL-28 > 100 µM | SK-MEL-2 > 100 µM | SK-MEL-5 > 100 µM | TK-10 > 100 µM | U-251 > 100 µM | UO-31 > 100 µM

CC1CCOc2ccc(cc2)/C=N\c2ccc(cc2)CCc2ccc(cc2)/N=C\c2ccc(cc2)OCC1
inactive: 786-0 > 100 µM | ACHN > 100 µM | DU-145 > 100 µM | HOP-62 18.2 µM | KM12 > 100 µM | M14 > 100 µM | MDA-N > 100 µM | NCI-H226 > 100 µM | OVCAR-3 > 100 µM | OVCAR-5 > 100 µM | OVCAR-8 > 100 µM | RPMI-8226 > 100 µM | SK-MEL-28 > 100 µM | SK-MEL-2 > 100 µM | SK-MEL-5 > 100 µM | SR > 100 µM | U-251 > 100 µM | UO-31 > 100 µM

CC1(C)CC2(C)CC1CC2NC(=O)CCN1CCOCC1 (stereo not given)
inactive: 786-0 > 100 µM | ACHN > 100 µM | DU-145 > 100 µM | HL-60 > 100 µM | HOP-62 > 100 µM | KM12 > 100 µM | M14 > 100 µM | MDA-N > 100 µM | NCI-H226 > 100 µM | OVCAR-3 > 100 µM | OVCAR-5 > 100 µM | OVCAR-8 > 100 µM | SK-MEL-28 > 100 µM | SK-MEL-5 > 100 µM | SR > 100 µM | TK-10 > 100 µM | U-251 > 100 µM | UO-31 > 100 µM
